Counter-ions that a name gives are not always drawn.
Experiments:
[1] = Acute toxicity in the mouse, Weil method; conditions: in vivo, ip
From the text: The acute toxicity of the compounds of general formula (I) has been studied in the mouse with the Weil method (Weil C.S., Biometr. J. 8, 249, 1952).
The LD50 values of some compounds illustrated in Table I, indicate that the compounds are remarkably well tolerated.
LD50, mg Kg^-1, ep in mice of some mercapto
acyl-carnitine esters of general formula (I).
Weil's method (N = 5, K = 4)

[2] = Cutaneous regeneration from burns in rabbits; type: in vivo; conditions: 25 mg Kg^-1 oral once a day for seven days
Procedure: The ability of the compounds of formula (I) to speed up the cutaneous regeneration from burns has been tested in rabbits.
A 4 cm^2 cutaneous area of the average-top zone of the test animal back was burned.
The compounds were orally administered in aqueous solution at the dose of 25 mg Kg^-1 once a day for seven days. The area of cutaneous regeneration, i.e., the area of the newly formed tissue was then measured (Table III).

[3] = Mucolytic activity in vitro, thromboelastograph, method of Morandini et al.; conditions: human sputum
Procedure: The tests were carried out in vitro by using the method disclosed by Morandini et al. (Lotta contro la tubercolosi 47, n. 4, 1977). A thromboelastograph was used to follow the variations induced by the compounds of general formula (I) and acetylcysteine on the rheological properties of human sputum.

[4] = Protection against X-ray exposure, survival of irradiated rats; type: in vivo, Albino Wister rats; conditions: 20-25 mg Kg^-1 1 hour before irradiation and 10 mg Kg^-1 per day in subsequent 20 days
Procedure: The effect of the compounds of formula (I) towards the damages provoked by X-ray exposure was studied.
The experiment animals, Albino Wister rats, treated with the compounds under examination (20-25 mg Kg^-1 1 hour before irradiation and 10 mg Kg^-1 per day in the subsequent 20 days) were irradiated and checked over a time period to detect the onset of toxic effects and the time of survival with respect to the control group.
In table II, the percentage of survival at the 10th, 15th and 20th day from irradiation are reported.

[5] = Expectorant activity (bronchial secretion), method of Perry et al.; type: in vivo, male rabbits; conditions: rabbits
Procedure: The tests were carried out on male rabbits, weighing 2-3 Kg, anesthetized with ethyl urethane, by following the method disclosed by Perry et al. (J. Pharm. Exp. Ther. 73, 65, 1941).
Each cannula was connected to a feeding device which delivered a steady flow-rate of pre-heated air (36°-38° C.) at constant humidity (80%). At the lower end of each cannula, a graduated cylinder was fitted, wherein the bronchial secretion was collected. All of the animals breathed spontaneously and consequently they self-regulated the air intake suitable for normal respiration. After an hour following cannula insertion, the animals were administered orally (by stomach tube) the compounds of general formula (I) dissolved in distilled water at the doses indicated in Table IV. Each dose of drug was administered to 5 animals. The control animals (8) were given water only. The amount of secretion was determined after 1, 2 and 4 hours from administration.

[6] = 1 ml of a 10% solution at dilution 1/30
[7] = 1 ml of a 10% solution at dilution 1/60

CCC(S)C(=O)OC(CC(=O)OCC(C)C)C[N+](C)(C)C (stereo not shown) [2-mercapto butyryl carnitine isobutyl ester]
LD50 [1]: 236 mg/kg | Percentage of regenerated tissue ([2]; 4th day from treatment): 35% | Percentage of regenerated tissue ([2]; 8th day from treatment): 70% | Percentage drop ± s.e. of the tracing versus maximum peak (mucolytic activity index) [3, 6]: 95.9 ± 5% | Percentage drop ± s.e. of the tracing versus maximum peak (mucolytic activity index) [3, 7]: 51.2 ± 3% | Percentage of surviving animals ([4]; 10th day from irradiation): 95% | Percentage of surviving animals ([4]; 15th day from irradiation): 65% | Percentage of surviving animals ([4]; 20th day from irradiation): 50% | Percentage variations of bronchial secretion versus values ([5]; oral 20 mg, 2 hours): -0.4% | Percentage variations of bronchial secretion versus values ([5]; oral 20 mg, 4 hours): +0.2%

CC(C)COC(=O)CC(C[N+](C)(C)C)OC(=O)C(C)S (stereo not shown) [2-mercapto propionyl carnitine isobutyl ester]
LD50 [1]: 274 mg/kg | Percentage of regenerated tissue ([2]; 4th day from treatment): 25% | Percentage of regenerated tissue ([2]; 8th day from treatment): 65% | Percentage drop ± s.e. of the tracing versus maximum peak (mucolytic activity index) [3, 6]: 80.4 ± 7% | Percentage drop ± s.e. of the tracing versus maximum peak (mucolytic activity index) [3, 7]: 42.8 ± 4% | Percentage of surviving animals ([4]; 10th day from irradiation): 85% | Percentage of surviving animals ([4]; 15th day from irradiation): 70% | Percentage of surviving animals ([4]; 20th day from irradiation): 45% | Percentage variations of bronchial secretion versus values ([5]; oral 15 mg, 2 hours): -0.1% | Percentage variations of bronchial secretion versus values ([5]; oral 15 mg, 4 hours): +0.5%

CCOC(=O)CC(C[N+](C)(C)C)OC(=O)CCS (stereo not shown) [3-mercapto propionyl carnitine ethyl ester]
LD50 [1]: 228 mg/kg | Percentage of regenerated tissue ([2]; 4th day from treatment): 40% | Percentage of regenerated tissue ([2]; 8th day from treatment): 100% | Percentage drop ± s.e. of the tracing versus maximum peak (mucolytic activity index) [3, 6]: 79.8 ± 4% | Percentage drop ± s.e. of the tracing versus maximum peak (mucolytic activity index) [3, 7]: 39.5 ± 5% | Percentage of surviving animals ([4]; 10th day from irradiation): 90% | Percentage of surviving animals ([4]; 15th day from irradiation): 85% | Percentage of surviving animals ([4]; 20th day from irradiation): 60% | Percentage variations of bronchial secretion versus values ([5]; oral 20 mg, 1 hour): +0.6% | Percentage variations of bronchial secretion versus values ([5]; oral 20 mg, 2 hours): +0.8% | Percentage variations of bronchial secretion versus values ([5]; oral 20 mg, 4 hours): +1.0%

CC(C)COC(=O)CC(C[N+](C)(C)C)OC(=O)CCCS (stereo not shown) [4-mercapto butyryl carnitine isobutyl ester]
LD50 [1]: 231 mg/kg | Percentage of regenerated tissue ([2]; 4th day from treatment): 25% | Percentage of regenerated tissue ([2]; 8th day from treatment): 75% | Percentage of surviving animals ([4]; 10th day from irradiation): 100% | Percentage of surviving animals ([4]; 15th day from irradiation): 75% | Percentage of surviving animals ([4]; 20th day from irradiation): 55% | Percentage variations of bronchial secretion versus values ([5]; oral 25 mg, 1 hour): +0.5% | Percentage variations of bronchial secretion versus values ([5]; oral 25 mg, 2 hours): +0.9% | Percentage variations of bronchial secretion versus values ([5]; oral 25 mg, 4 hours): +2.1%

COC(=O)CC(C[N+](C)(C)C)OC(=O)CCCCS (stereo not shown) [5-mercapto valeryl carnitine methyl ester]
LD50 [1]: 219 mg/kg | Percentage of regenerated tissue ([2]; 4th day from treatment): 45% | Percentage of regenerated tissue ([2]; 8th day from treatment): 100% | Percentage drop ± s.e. of the tracing versus maximum peak (mucolytic activity index) [3, 6]: 90.2 ± 6% | Percentage drop ± s.e. of the tracing versus maximum peak (mucolytic activity index) [3, 7]: 48.4 ± 4% | Percentage of surviving animals ([4]; 10th day from irradiation): 85% | Percentage of surviving animals ([4]; 15th day from irradiation): 60% | Percentage of surviving animals ([4]; 20th day from irradiation): 40% | Percentage variations of bronchial secretion versus values ([5]; oral 20 mg, 1 hour): +0.3% | Percentage variations of bronchial secretion versus values ([5]; oral 20 mg, 2 hours): +0.5% | Percentage variations of bronchial secretion versus values ([5]; oral 20 mg, 4 hours): +1.0%

CC(=O)N[C@@H](CS)C(=O)O [Acetylcysteine, acetylcysteine, reference compound]
Percentage drop ± s.e. of the tracing versus maximum peak (mucolytic activity index) [3, 6]: 75.6 ± 7% | Percentage drop ± s.e. of the tracing versus maximum peak (mucolytic activity index) [3, 7]: 23.8 ± 5%

CC(C)OC(=O)CC(C[N+](C)(C)C)OC(=O)CS (stereo not shown) [mercapto acetyl carnitine hydrochloride isopropyl-ester]
LD50 [1]: 250 mg/kg | Percentage of regenerated tissue ([2]; 4th day from treatment): 30% | Percentage of regenerated tissue ([2]; 8th day from treatment): 70% | Percentage drop ± s.e. of the tracing versus maximum peak (mucolytic activity index) [3, 6]: 82.5 ± 5% | Percentage drop ± s.e. of the tracing versus maximum peak (mucolytic activity index) [3, 7]: 44.3 ± 3% | Percentage of surviving animals ([4]; 10th day from irradiation): 80% | Percentage of surviving animals ([4]; 15th day from irradiation): 55% | Percentage of surviving animals ([4]; 20th day from irradiation): 30% | Percentage variations of bronchial secretion versus values ([5]; oral 15 mg, 1 hour): +0.5% | Percentage variations of bronchial secretion versus values ([5]; oral 15 mg, 2 hours): +0.7% | Percentage variations of bronchial secretion versus values ([5]; oral 15 mg, 4 hours): +2.1%
